The text below walks through data of patent US8013144B2, “hnRNP K expression-inhibiting compound and siRNA sequence thereof” (Chang Gung University, priority 2009, dated 2011).

The experiment relates to NPC-TW02 and NPC-TW02/TP. The experiment is described as follows: cytotoxicity assay with 5′-DFUR, apoptosis assay (annexin V). To be noted: TP over-expression, 72 hours. The class given is cell-based. As for the experimental part: Refer to FIG. 1A and FIG. 1B. A cell line of nasopharyngeal cancer NPC-TW02/TP is established to stably express exogenous TP. First, the TP-expression carrier pcDNA3.1-PT is transfected to the cell line. Next, the cell line is screened and then cultivated in a culture solution having 500 μg/ml G418. Next is performed a cytotoxicity assay, wherein NPC-TW02 and NPC-TW02/TP are respectively processed with 5′-DFUR (a product of Sigma-Aldrich, St. Louis, Mo., USA). Next, the cell lines are further cultivated for 72 hours. Next, the cell membranes are everted to expose phosphatidylserine. Then, phosphatidylserine is analyzed with the Vybrant® Apoptosis Assay Kit #2 (a product of Invitrogen).
Firstly, 2×10^5 cells are taken out and washed with PBS. Next, a buffer solution (10 mM HEPES, 140 mM NaCl, 2.5 mM CaCl2, pH 7.4) is used to adjust the solution to have a cell concentration of 2×10^6/mL. Next, 5 μl Alexa Fluor® 488 annexin V is added into […], and then the cell suspension reacts at an ambient temperature for 15 minutes. Next, the cell specimens (10000 events) are analyzed with a flow cytometer (a product of Becton Dickinson), as shown in FIG. 3. […] Then, phosphatidylserine is analyzed with the Vybrant® Apoptosis Assay Kit #2 (a product of Invitrogen).

Consider `C[C@H]1O[C@@H](n2cc(F)c(=O)[nH]c2=O)[C@H](O)[C@@H]1O` [5′-DFUR, 5-fluoro-5′-deoxyuridine], for which the “sensitivity of nasopharyngeal cancer cells to 5′-DFUR (apoptosis)” value is given as “more sensitive”.
